The results in this text go back to PubChem BioAssay (NCI).

Values joined by “and” are separate entries in the source; they are usually repeats but may differ in a detail not shown here. Equal values may be shown once.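 Five compound concentrations were applied to cells in 96-well plates for 48 hours; endpoints were derived by simple linear interpolation of the resulting dose-response curve. Here, GI50 denotes the concentration required for 50% inhibition of growth. The concentration for full growth arrest is given as TGI.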 Where a SMILES comes first, the peptide text is derived from it. [ ]: non-standard residue; d: D form. The star is where a group is joined. ξ: configuration not given here. ξF = NC(Cc1ccccc1)C(=O)O; Cbz = O=C(OCc1ccccc1)*

Among the test systems are SNB-19 CNS; MALME-3M melanoma; A498 renal; SNB-75 CNS; MDA-N; RPMI-8226 leukemia; CAKI-1 renal; U251 CNS; COLO 205 colon; HL-60(TB) leukemia; OVCAR-3 ovarian; BT-549 breast.
Holding throughout (assay): NCI anticancer screen, dose series, 48 h

Regarding `COC(=O)c1cc(S(=O)(=O)NC2=NCC(C)NN2)c(S)cc1Cl` (stereo not drawn), the TGI is greater than 100 µM in the assay on SNB-19 CNS; 97.5 µM in the assay with MALME-3M melanoma; 72.8 µM with A498 renal; 75.3 µM in the assay with SNB-75 CNS; greater than 100 µM in the assay with MDA-N; greater than 100 µM in the assay on RPMI-8226 leukemia. Further, the TGI in the assay on CAKI-1 renal, in the assay on U251 CNS, in the assay on COLO 205 colon, in the assay with HL-60(TB) leukemia, in the assay with OVCAR-3 ovarian and in the assay on BT-549 breast was greater than 100 µM in each case.
Take `COC(=O)c1c(C)cccc1/C=C1\Cc2ccc(C)c(C)c2C1=O`: the TGI in the assay with SNB-19 CNS, in the assay on MALME-3M melanoma, in the assay on A498 renal, with SNB-75 CNS, with MDA-N and in the assay with RPMI-8226 leukemia was greater than 100 µM throughout. In addition, the TGI with CAKI-1 renal, with U251 CNS, in the assay with HL-60(TB) leukemia, in the assay with OVCAR-3 ovarian and in the assay on BT-549 breast was greater than 100 µM throughout.
`CCOc1cnc(C(O)(c2ccccc2)c2ccccc2)o1`: the TGI with SNB-19 CNS, in the assay with MALME-3M melanoma, in the assay with A498 renal, in the assay on SNB-75 CNS, in the assay with MDA-N and with RPMI-8226 leukemia was greater than 100 µM in each case. The TGI in the assay with CAKI-1 renal, in the assay on U251 CNS, in the assay with COLO 205 colon, in the assay with HL-60(TB) leukemia, with OVCAR-3 ovarian and in the assay with BT-549 breast was greater than 100 µM each time.
In the case of `COC(=O)[C@H](Cc1ccccc1)NC(=O)c1ccc(CNC(=O)/C=C/c2csc(-c3ccccc3)n2)cc1`, the TGI with SNB-19 CNS is 39.6 µM; in the assay on MALME-3M melanoma, 11.8 µM; in the assay with A498 renal, 34.5 µM; in the assay with SNB-75 CNS, 42 µM; in the assay with MDA-N it was 15.5 µM; in the assay with RPMI-8226 leukemia, greater than 100 µM. In addition, the TGI with CAKI-1 renal was greater than 28.7 µM; in the assay on U251 CNS, greater than 72.1 µM; in the assay with COLO 205 colon it was greater than 83.2 µM; with HL-60(TB) leukemia, greater than 100 µM; with OVCAR-3 ovarian, 26.3 µM; with BT-549 breast, greater than 100 µM.
Turning to `O=[N+]([O-])c1cccc2nc3ccccc3c(NCCCCCNc3c4ccccc4nc4cccc([N+](=O)[O-])c34)c12`, the TGI in the assay with MALME-3M melanoma is 0.16 µM; with A498 renal, 0.248 µM; in the assay with SNB-75 CNS, 0.867 µM and 0.827 µM; in the assay on MDA-N, 0.191 µM; with RPMI-8226 leukemia, 0.637 µM; in the assay with CAKI-1 renal it was 0.278 µM and 0.0712 µM. The TGI in the assay on COLO 205 colon is 0.13 µM and 0.0322 µM; in the assay with HL-60(TB) leukemia it was 0.0429 µM; in the assay with OVCAR-3 ovarian it was 0.262 µM and 0.054 µM; in the assay on BT-549 breast, 0.39 µM and 1.02 µM. The GI50 in the assay with SNB-75 CNS was 0.041 µM; with CAKI-1 renal it was 0.0199 µM; with OVCAR-3 ovarian, 0.0135 µM; in the assay on BT-549 breast, 0.183 µM.
`O=c1cc(Nc2cccc(O)c2)[nH]c(=O)[nH]1`: the TGI with SNB-19 CNS, in the assay with MALME-3M melanoma, in the assay with A498 renal, in the assay with SNB-75 CNS, with MDA-N and in the assay with RPMI-8226 leukemia was greater than 100 µM throughout. Further, the TGI in the assay with CAKI-1 renal, with U251 CNS, with COLO 205 colon, with HL-60(TB) leukemia, in the assay with OVCAR-3 ovarian and in the assay on BT-549 breast was greater than 100 µM in each case.
Take `CCOC(=O)CNC(=O)C(Cc1ccccc1)NC(=O)OCc1ccccc1` (stereo not drawn) (Cbz-[ξF]-Gly-OEt): the TGI in the assay with SNB-19 CNS, in the assay with MALME-3M melanoma, with A498 renal, in the assay on SNB-75 CNS, in the assay with MDA-N and in the assay on RPMI-8226 leukemia was greater than 100 µM each time. Further, the TGI in the assay with U251 CNS, in the assay with COLO 205 colon, in the assay on HL-60(TB) leukemia, with OVCAR-3 ovarian and in the assay with BT-549 breast was greater than 100 µM each time.
For the compound `COc1ccccc1C1c2cc3c(cc2OC2(OC)COC(=O)C12)OCO3` (stereo not drawn), the TGI was greater than 77.6 µM in the assay on SNB-19 CNS; greater than 100 µM in the assay on MALME-3M melanoma; 54.4 µM in the assay with A498 renal; 43.1 µM with SNB-75 CNS; 5.51 µM in the assay with MDA-N; 28.3 µM in the assay with RPMI-8226 leukemia. Besides, the TGI in the assay on CAKI-1 renal is greater than 100 µM; with U251 CNS, greater than 100 µM; in the assay with COLO 205 colon it was 67.3 µM; in the assay on HL-60(TB) leukemia, 18.5 µM; in the assay with OVCAR-3 ovarian, 69.3 µM; with BT-549 breast it was greater than 100 µM.
Consider `Cc1cccc2sc(NC(=O)NS(=O)(=O)n3cnc4ccccc43)nc12`, for which the TGI with SNB-19 CNS is greater than 100 µM; in the assay with MALME-3M melanoma it was 72 µM; with A498 renal, 72.3 µM; with SNB-75 CNS, 63.3 µM; in the assay on MDA-N, greater than 100 µM; in the assay with RPMI-8226 leukemia it was 84.3 µM. Also, the TGI in the assay on CAKI-1 renal was greater than 100 µM; in the assay with U251 CNS, 48.2 µM; in the assay with COLO 205 colon it was greater than 100 µM; in the assay with HL-60(TB) leukemia it was greater than 100 µM; in the assay with OVCAR-3 ovarian it was 46.8 µM; with BT-549 breast it was 59.9 µM.
Regarding `COC(=O)[C@@H]1CO[C@H](C(C)(C)C)N1C(=O)N1C=CC(=O)C[C@H]1C`, the TGI in the assay on MALME-3M melanoma, in the assay on A498 renal, in the assay on SNB-75 CNS, in the assay on MDA-N, with RPMI-8226 leukemia and in the assay on CAKI-1 renal was greater than 100 µM in each case. Further, the TGI in the assay on U251 CNS, in the assay with COLO 205 colon, in the assay on HL-60(TB) leukemia, in the assay on OVCAR-3 ovarian and in the assay on BT-549 breast was greater than 100 µM throughout.
In the case of `O=C(Nn1c(-c2ccccc2)nc2ccccc2c1=O)c1ccc(Cl)cc1`, the TGI in the assay on SNB-19 CNS, with MALME-3M melanoma, in the assay with A498 renal, with SNB-75 CNS, in the assay on MDA-N and with RPMI-8226 leukemia was greater than 100 µM throughout. Further, the TGI in the assay on U251 CNS, in the assay with HL-60(TB) leukemia, with OVCAR-3 ovarian and with BT-549 breast was greater than 100 µM each time.
Consider `O=C(c1ccc(Cl)cc1)N(C(=O)N1CCCCC1)c1ccccc1`, for which the TGI in the assay with SNB-19 CNS, in the assay on MALME-3M melanoma, in the assay with A498 renal, in the assay with MDA-N, with RPMI-8226 leukemia and with CAKI-1 renal was greater than 100 µM throughout. Moreover, the TGI with U251 CNS, in the assay on COLO 205 colon, in the assay on HL-60(TB) leukemia, in the assay with OVCAR-3 ovarian and with BT-549 breast was greater than 100 µM throughout.
In the case of `C[C@@H](CC(=O)OCc1ccccc1)OC1OC(COC(=O)C(C)(C)C)C(OC(=O)C(C)(C)C)C(OC(=O)C(C)(C)C)C1OC(=O)C(C)(C)C` (stereo partly drawn), the TGI in the assay with SNB-19 CNS, with MALME-3M melanoma, in the assay on A498 renal, with SNB-75 CNS, in the assay with MDA-N and in the assay with RPMI-8226 leukemia was greater than 100 µM throughout. The TGI with CAKI-1 renal, with U251 CNS, in the assay with COLO 205 colon, in the assay on HL-60(TB) leukemia, in the assay with OVCAR-3 ovarian and in the assay with BT-549 breast was greater than 100 µM throughout.
On to `O=C(NCCN(CCNC(=O)c1cccc(O)c1O)CCNC(=O)c1cccc(O)c1O)c1cccc(O)c1O`, for which the TGI was greater than 100 µM in the assay with SNB-19 CNS; greater than 52.5 µM in the assay with MALME-3M melanoma; greater than 100 µM with A498 renal; greater than 100 µM with SNB-75 CNS; greater than 100 µM with MDA-N; greater than 59.7 µM in the assay with RPMI-8226 leukemia. Moreover, the TGI was greater than 100 µM with CAKI-1 renal; greater than 89 µM with U251 CNS; greater than 100 µM in the assay with COLO 205 colon; greater than 100 µM in the assay on HL-60(TB) leukemia; greater than 40.2 µM in the assay with OVCAR-3 ovarian; greater than 100 µM in the assay with BT-549 breast.
For `Cc1nc2sc3cccc(Cl)c3n2c(=O)c1N=Nc1ccc(Cl)cc1`, the TGI in the assay on SNB-19 CNS was greater than 100 µM; in the assay on MALME-3M melanoma it was greater than 100 µM; in the assay on A498 renal it was 67.6 µM; in the assay on SNB-75 CNS it was greater than 100 µM; with MDA-N it was greater than 100 µM; in the assay with RPMI-8226 leukemia it was greater than 100 µM. Besides, the TGI in the assay on CAKI-1 renal, with U251 CNS, in the assay on COLO 205 colon, in the assay with HL-60(TB) leukemia, in the assay with OVCAR-3 ovarian and in the assay with BT-549 breast was greater than 100 µM each time.
Consider `COC(=O)/C=C(\C(=O)OC)c1cc(C)c2cc(C(C)C)ccc(C)c1-2`, for which the TGI is greater than 100 µM in the assay with SNB-19 CNS; greater than 100 µM in the assay on MALME-3M melanoma; greater than 100 µM with A498 renal; 46.3 µM in the assay on MDA-N; greater than 100 µM in the assay on RPMI-8226 leukemia; greater than 100 µM in the assay with CAKI-1 renal. Moreover, the TGI in the assay with U251 CNS, in the assay with COLO 205 colon, with HL-60(TB) leukemia, with OVCAR-3 ovarian and in the assay with BT-549 breast was greater than 100 µM each time.
Consider `COC1(OC)c2occc2C(=N)c2ccc(=O)oc21`, for which the TGI with SNB-19 CNS was greater than 100 µM; in the assay with MALME-3M melanoma it was 33.5 µM; in the assay on A498 renal, greater than 100 µM; in the assay with MDA-N it was greater than 100 µM; in the assay with RPMI-8226 leukemia it was greater than 100 µM; in the assay on CAKI-1 renal, greater than 100 µM. Moreover, the TGI in the assay on U251 CNS, in the assay with COLO 205 colon, in the assay with HL-60(TB) leukemia, in the assay with OVCAR-3 ovarian and in the assay on BT-549 breast was greater than 100 µM each time.
